In patent US12421223B2, “Compounds and compositions for treating conditions associated with NLRP activity” (Novartis AG, priority 2018, dated 2025):
pIC50: −log10 of the molar value.

System: IL-1β production in PMA-differentiated THP-1 cells
Assay: IL-1β production in PMA-differentiated THP-1 cells stimulated with gramicidin (hTHP-1 assay, 2% fetal bovine serum)
Format: cell-based
Details: Homo sapiens, hTHP-1 assay containing 2% fetal bovine serum, gramicidin 5 μM, IL-1β by HTRF, read-out: THP-1 IC50 (Average IC50 of compounds in hTHP-1 assay)
Method: The following protocol is suitable for testing the activity of the compounds disclosed herein.
Procedure 1: IL-1β Production in PMA-Differentiated THP-1 Cells Stimulated with Gramicidin.
THP-1 cells were purchased from the American Type Culture Collection and sub-cultured according to instructions from the supplier. Cells were cultured in complete RPMI 1640 (containing 10% heat inactivated FBS, penicillin (100 units/ml) and streptomycin (100 μg/ml)), and maintained in log phase prior to experimental setup. Prior to the experiment, compounds were dissolved in dimethyl sulfoxide (DMSO) to generate a 30 mM stock. The compound stock was first pre-diluted in DMSO to 3, 0.34, 0.042 and 0.0083 mM intermediate concentrations and subsequently spotted using Echo550 liquid handler into an empty 384-well assay plate to achieve desired final concentration (e.g. 100, 33, 11, 3.7, 1.2, 0.41, 0.14, 0.046, 0.015, 0.0051, 0.0017 μM). DMSO was backfilled in the plate to achieve a final DMSO assay concentration of 0.37%. The plate was then sealed and stored at room temperature until required.
THP-1 cells were treated with PMA (Phorbol 12-myristate 13-acetate) (20 ng/ml) for 16-18 hours. On the day of the experiment the media was removed and adherent cells were detached with trypsin for 5 minutes. Cells were then harvested, washed with complete RPMI 1640, spun down, and resuspended in RPMI 1640 (containing 2% heat inactivated FBS, penicillin (100 units/ml) and streptomycin (100 μg/ml). The cells were plated in the 384-well assay plate containing the spotted compounds at a density of 50,000 cells/well (final assay volume 50 μl). Cells were incubated with compounds for 1 hour and then stimulated with gramicidin (5 μM) (Enzo) for 2 hours. Plates were then centrifuged at 340 g for 5 min. Cell free supernatant (40 μL) was collected using a 96-channel PlateMaster (Gilson) and the production of IL-1β was evaluated by HTRF (cisbio). The plates were incubated for 18 h at 4° C. and read using the preset HTRF program (donor emission at 620 nm, acceptor emission at 668 nm) of the SpectraMax i3x spectrophotometer (Molecular Devices, software SoftMax 6). A vehicle only control and a dose titration of CRID3 (100-0.0017 μM) were run concurrently with each experiment.
Procedure 2: IL-1β Production in PMA-Differentiated THP-1 Cells Stimulated with Gramicidin.
THP-1 cells were purchased from the American Type Culture Collection and sub-cultured according to instructions from the supplier. Prior to experiments, cells were cultured in complete RPMI 1640 (containing 10% heat inactivated FBS, penicillin (100 units/ml) and streptomycin (100 μg/ml)), and maintained in log phase prior to experimental setup. Prior to the experiment THP-1 were treated with PMA (Phorbol 12-myristate 13-acetate) (20 ng/ml) for 16-18 hours. Compounds were dissolved in dimethyl sulfoxide (DMSO) to generate a 30 mM stock. On the day of the experiment the media was removed and adherent cells were detached with trypsin for 5 minutes. Cells were then harvested, washed with complete RPMI 1640, spun down, resuspended in RPMI 1640 (containing 2% heat inactivated FBS, penicillin (100 units/ml) and streptomycin (100 μg/ml). The cells were plated in a 384-well plate at a density of 50,000 cells/well (final assay volume 50 μl). Compounds were first dissolved in assay medium to obtain a 5× top concentration of 500 μM. 10 step dilutions (1:3) were then undertaken in assay medium containing 1.67% DMSO. 5× compound solutions were added to the culture medium to achieve desired final concentration (e.g. 100, 33, 11, 3.7, 1.2, 0.41, 0.14, 0.046, 0.015, 0.0051, 0.0017 μM). Final DMSO concentration was at 0.37%. Cells were incubated with compounds for 1 hour and then stimulated with gramicidin (5 μM) (Enzo) for 2 hours. Plates were then centrifuged at 340 g for 5 min. Cell free supernatant (40 μL) was collected using a 96-channel PlateMaster (Gilson) and the production of IL-1β was evaluated by HTRF (cisbio). […]

Structure (SMILES) | pIC50
CC(C)(O)c1ncc([C@@H](NC(=O)OCc2ccccc2)c2ccn(-c3c4c(cc5c3CCC5)CCC4)n2)s1 (single isomer, unassigned) [Compound 116] | 4.52 to 5.30
CC(C)(O)c1ncc(C(CNC(=O)OCc2ccccc2)c2cnn(-c3c4c(cc5c3CCC5)CCC4)c2)s1 (stereo not drawn) [Compound 101, Benzyl (2-(1-(1,2,3,5,6,7-hexahydro-s-indacen-4-yl)-1H-pyrazol-4-yl)-2-(2-(2-hydroxypropan-2-yl)thiazol-5-yl)ethyl) carbamate] | 5.30 to 6.00
CC(C)(O)c1ncc(C(NC(=O)OCc2ccccc2)c2ccn(-c3c4c(cc5c3CCC5)CCC4)n2)s1 (stereo not drawn) [Compound 102, Benzyl (1-(1,2,3,5,6,7-hexahydros-indacen-4-yl)-1H-pyrazol-3-yl)(2-(2-hydroxypropan-2-yl)thiazol-5-yl)methylcarbamate] | 4.52 to 5.30
CC(C)(O)c1ncc(C(=O)c2ccnn2-c2c3c(cc4c2CCC4)CCC3)s1 [Compound 103] | 4.52 to 5.30
CC(C)(O)c1cnc(S(=O)(=O)c2cnn(-c3c4c(cc5c3CCC5)CCC4)c2)s1 [Compound 104, 2-(2-((1-(1,2,3,5,6,7-hexahydro-s-indacen-4-yl)-1H-pyrazol-4-yl)sulfonyl)thiazol-5-yl)propan-2-ol] | 4.52 to 5.30
CC(C)(O)c1ncc(C(CNC(=O)c2ccccc2)c2cnn(-c3c4c(cc5c3CCC5)CCC4)c2)s1 (stereo not drawn) [Compound 114] | 4.52 to 5.30
CC(C)(O)c1ncc(S(=O)(=O)c2cnn(-c3c4c(cc5c3CCC5)CCC4)c2)s1 [Compound 115, 2-(5-((1-(1,2,3,5,6,7-hexahydro-s-indacen-4-yl)-1H-pyrazol-4-yl)sulfonyl)thiazol-2-yl)propan-2-ol] | 4.52 to 5.30
CC(C)(O)c1ncc(C(=O)c2ccn(-c3c4c(cc5c3CCC5)CCC4)n2)s1 [Compound 118] | 4.52 to 5.30
O=C(NCc1cnn(-c2c3c(cc4c2CCC4)CCC3)c1)OCc1ccccc1 [Compound 200, Benzyl ((1-(1,2,3,5,6,7-hexahydro-s-indacen-4-yl)-1H-pyrazol-4-yl)methyl)carbamate] | 4.52 to 5.30
